Results on one molecule are retold here after patent US11091429B2, “Organic compounds” (Givaudan SA, priority 2012, dated 2021).

“Also recorded” adds a separate entry of the source.

Experiment [1] is described as follows: Tasting in chicken bouillon. Particulars: 0.7% salt, 0.5% fat. The procedure:
(§1) The following formulations were prepared and tasted by trained panelists.
Standard Chicken bouillon base, 0.7% salt, 0.5% fat
(§2) Samples were prepared and evaluated by expert tasters. Tasters were asked to describe the samples focusing on authentic taste, mouthfeel, fullness, salivation, salty-ness, umami, sweetness, juiciness, richness, long lastingness and fattiness.
Test in Soups and Bouillons
Standard Chicken Bouillon Base

Experiment [2] is described as follows: Tasting in low fat mayonnaise. Particulars: 0.5 ppm in low fat mayonnaise (27% fat). The protocol: as §1
Low fat Mayonnaise (27% Fat, 9% carbohydrates (of which 5% sugar), 1.4% salt)
(§3) Samples were prepared and evaluated by expert tasters. Tasters were asked to describe the samples focusing on authentic taste, mouthfeel, fullness, salty-ness, salivation, umami, sweetness, juiciness, richness, long lastingness and fattiness.
Calve 60% Reduced Fat Mayonnaise
Base is Calve Mayonnaise 60% reduced fat (market Product)
as §2
Low fat Mayonnaise (27% Fat)

Experiment [3] is described as follows: Tasting on fried potato snack product. Conditions: 35% fat, cheese seasoning. The protocol: as §1
A snack product consisting of a fried potato base, containing 35% fat and flavored with cheese seasoning containing salt, MSG, dairy, organic acids, sugars, and a flavour formulation. The following compounds were added to the snack product at the indicated levels and the tasting results are reported: […]

Experiment [4] in a line: Tasting in low fat salad dressing. Conditions: 0.5 ppm in low fat salad dressing (13.6% fat). The procedure: as §1
low fat salad dressing (13.6% Fat, 8%, carbohydrates (of which 5.3% sugar))
as §3
Calve Salad Dressing Low Fat (13.6% Fat):
Base is Calve salad dressing (market product)
as §2
Low fat salad dressing (13.6% Fat)

A further experiment can be described thus: Tasting in soy sauce. Conditions: 0.5 ppm in pure salt reduced kikoman soy sauce (9% salt). The procedure: as §1
(§4) Salt level pure product between 5-40%
(§5) Salt level in application 0.3-1.0%
as §3
Test on Kikkoman Soy Sauce Low Salt
Base is Kikkoman soy sauce
as §2

A short description of experiment [5]: Tasting in spreadable cheese. Particulars: 0.5 PPM in spreadable cheese (Eru). The procedure: as §1, §3
Test on “Eru Prestige” Spreadable Cheese
Base is Eru prestige (market product)
as §2

Experiment [6] is described as follows: Tasting on air expanded base. Conditions: 3% fat, cheese seasoning. The protocol: as §1
An air expanded base (Rice, wheat, Tapioca, potato, salt, sugar, modified starch), containing 3% fat and flavored with cheese seasoning containing salt, MSG, dairy, organic acids, sugars and flavor. The following compounds were added to the base at the indicated levels and the tasting results are reported: […]

A further experiment is described as follows: Tasting in fish sauce. Conditions: 0.5 ppm in pure fish sauce (27% salt). The procedure: as §1, §4, §5, §2
The nature of the next experiment: Tasting in beef jus. Particulars: 40 PPB in beef jus. The protocol: as §1, §2
The nature of another experiment: Tasting in cheese sauce. Conditions: 0.5 PPM in cheese sauce 5% fat 1.6% salt. The procedure: as §1
Cheese sauce: 5% fat 1.6% salt
as §2
Cheese Sauce: 5% Fat 1.6% Salt

`CCCCCCCC/C=C\CCCCCCCC(=O)NC1(C(=O)O)CC1` [C18:1-ACCA, N-oleoyl 1-amino-cyclopropyl carboxylic acid]: the tasting result in experiment [1] (0.2 PPM in chicken bouillon base) is “Saltier, Stronger and more umami”; in [1] (0.5 PPM in chicken bouillon base), “More body and fatty notes, salivating and good aftertaste”; in experiment [2], “nicely balanced compositions with a full mouthfeel and a more eggy taste; also recorded: Nice balanced, full mouthfeel, increased eggyness”; in [3] (0.5 ppm on fried potato snack) it was “Increased salty”; in experiment [3] (1 ppm on fried potato snack), “Increased Umami, salty”; in experiment [4], “more mouthfeel with body and less acidic; also recorded: Increased mouthfeel body less acidic”. The tasting result in the experiment “Tasting in soy sauce” was “strong upfront saltiness lingering, very strong saltiness”; in experiment [5], “Strong umami, lingering cheese bite”; in experiment [6] (0.5 ppm on air expanded base) it was “Increased salty”; in [6] (1 ppm on air expanded base), “Increased Umami, salty”; in the experiment “Tasting in fish sauce”, “strong saltiness lingering and with a strong body and mouthfeel”; in the experiment “Tasting in beef jus”, “more salty, fatty, total profile is enhanced”. Besides, the tasting result in “Tasting in cheese sauce” is reported as “Strong umami, cheese bite, expanding”.
